Data: patent US20110224210A1, “NOVEL BIS-AMIDES AS ANTI-MALARIAL AGENTS” (priority 2008, published 2011)

tested on: P. falciparum K1 (strain resistant to chloroquine and pyrimethamine), erythrocytic stages; test: Plasmodium falciparum in vitro assay, [3H] hypoxanthine incorporation; assay type: cell-based; details: P. falciparum strain K1; [3H] hypoxanthine incorporation; read-out: IC50 (nM) on K1
Procedure, shortened: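 Chloroquine/pyrimethamine-resistant K1 erythrocytic cultures (2.5% haematocrit, 0.3% parasitaemia, hypoxanthine-free RPMI with Albumax) exposed to seven doubling dilutions at 37 °C under low O2.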

Row | Compound | IC50
1 | (S)-N-[1-Benzyl-2-oxo-2-(4-phenyl-piperidin-1-yl)-ethyl]-N-(4-pyrimidin-5-yl-benzyl)-3-(6-trifluoromethyl-pyridin-3-yl)-acrylamide [Example 49] | 43 nM

same assay, conditions: Plasmodium falciparum, K1, P. falciparum strain K1; [3H] hypoxanthine incorporation; read-out: IC50 (nM) on K1

Row | IC50 | Compound
2 | 59 nM | CN(Cc1ccc(NC(=O)c2ccccc2)cc1)C(=O)[C@H](Cc1ccccc1)N(Cc1ccc(N2CCOCC2)cc1)C(=O)C=Cc1ccc(C(F)(F)F)nc1 [Example 275, (S)-N-(4-{[Methyl-(2-{(4-morpholin-4-yl-benzyl)-[3-(6-trifluoromethyl-pyridin-3-yl)-acryloyl]-amino}-3-phenyl-propionyl)-amino]-methyl}-phenyl)-benzamide]
3 | 65 nM | CC(=O)N(c1ccccc1)c1ccc(CN(C)C(=O)[C@H](Cc2ccccc2)N(Cc2ccc(N3CCOCC3)cc2)C(=O)C=Cc2ccc(C(F)(F)F)nc2)cc1 [Example 276]
4 | 47 nM | COCCNc1ccc(CN(C)C(=O)[C@H](Cc2ccccc2)N(Cc2ccc(N3CCOCC3)cc2)C(=O)C=Cc2ccc(C(F)(F)F)nc2)cc1 [Example 277]

Second part, the compound before the results:

Row | Compound | IC50
5 | CN(Cc1ccc(NC(=O)C2CC2)cc1)C(=O)[C@H](Cc1ccccc1)N(Cc1ccc(N2CCOCC2)cc1)C(=O)C=Cc1ccc(C(F)(F)F)nc1 [Example 273, (S)-Cyclopropanecarboxylic acid (4-{[methyl-(2-{(4-morpholin-4-yl-benzyl)-[3-(6-trifluoromethyl-pyridin-3-yl)-acryloyl]-amino}-3-phenyl-propionyl)-amino]-methyl}-phenyl)-amide] | 75 nM
6 | CN(Cc1ccc(N2CCCCC2=O)cc1)C(=O)[C@H](Cc1ccccc1)N(Cc1ccc(N2CCOCC2)cc1)C(=O)C=Cc1ccc(C(F)(F)F)nc1 [Example 274] | 63 nM
